Measured values: PubChem BioAssay AID1996
Values after ≈ are worked out from the molar mass of the structure shown.

Conditions: buffer; pH 7.4; 200.0 µM

solubility kinetic	Structure (SMILES)
0.031 mg/mL (≈ 105 µM)	COc1ccc(C(=O)Cn2cnc3ccccc3c2=O)cc1
0.0335 mg/mL (≈ 145 µM)	CC(C)C(=O)Nc1ccc2oc(=O)ccc2c1
0.0486 mg/mL (≈ 137 µM)	CN(c1ccccc1C(=O)Nc1ccc2ccccc2c1)S(C)(=O)=O
0.008 mg/mL (≈ 25.5 µM)	COc1ccc(O)c(C(=O)c2cnc3c(c2)CN(C)C(=O)N3)c1
0.0013 mg/mL (≈ 4.57 µM)	COC(=O)c1cc(=O)n2c(sc3ccccc32)c1C#N
0.0036 mg/mL	CN(C)CCN(C(=O)c1ccc2ccccc2c1)c1nc2ccc(Br)cc2s1.Cl
0.0297 mg/mL (≈ 115 µM)	C=CCNc1cc(=O)n(Cc2ccccc2)c(=O)[nH]1
> 0.0464 mg/mL	O=C(O)c1cc2c(=O)c3ccccc3oc2nc1C(F)(F)F
0.0025 mg/mL (≈ 7.48 µM)	Cc1ccc(NC(=O)Cc2cc(C(=O)O)c3ccccc3n2)c(C)c1
> 0.0512 mg/mL	COC(=O)c1cc(CNC(=O)CC(C)c2ccccc2)ccc1OC (stereo unspecified)
0.001 mg/mL (≈ 3.54 µM)	CN(Cc1ccccc1)C(=O)c1cc2cc(F)ccc2[nH]1
0.0499 mg/mL (≈ 150 µM)	CCn1c(SC(C)C(=O)NCC2CCCO2)nc2ccccc21 (stereo unspecified)
> 0.0464 mg/mL	CCOc1cc(/C=C(\C#N)C(=O)Nc2ccccn2)ccc1O
0.0133 mg/mL (≈ 54.5 µM)	CC(=O)c1ccc(NC(=O)c2cc(C)no2)cc1
0.007 mg/mL (≈ 30.7 µM)	CC(C)n1cnc2c(oc3ccccc32)c1=O
0.0102 mg/mL (≈ 33.9 µM)	CCc1nc(C(N)=O)c2[nH]c(=O)n(-c3ccccc3F)c2n1
> 0.0441 mg/mL	COc1ccc(-n2c3c(cc(C#N)c2=O)C(=O)CCC3)cc1

More lines, now with the values behind:

Structure (SMILES)	solubility kinetic
CCOc1ccc(NC(=O)c2[nH]c(C)c(C(C)=O)c2C)cc1	0.0034 mg/mL (≈ 11.3 µM)
CN(C(=O)c1ccc(N2CCOCC2)c([N+](=O)[O-])c1)C1CCCCC1	> 0.0521 mg/mL
CCOC(=O)c1c(C)[nH]c(C(=O)OCc2ccc(F)cc2)c1C	0.002 mg/mL (≈ 6.26 µM)
O=C(Nc1ccccc1C(=O)Nc1cccnc1)c1ccccc1	0.0063 mg/mL (≈ 19.9 µM)
Cc1nc2ccccc2n1C(C)c1ccccc1 (stereo unspecified)	> 0.0354 mg/mL
Brc1ccc(-c2cn3ccccc3n2)cc1	0.0008 mg/mL (≈ 2.93 µM)
CCOc1ccc(CCNC(=O)c2cnc(C)cn2)cc1OCC	> 0.0494 mg/mL
O=C(O)C1CCCCC1C(=O)NCCCN1CCCC1=O (stereo unspecified)	0.0414 mg/mL (≈ 140 µM)
CCS(=O)(=O)c1ccc(O)c(NC(=O)c2ccc(S(=O)(=O)N3CCCCCC3)cc2)c1	0.0116 mg/mL (≈ 24.9 µM)
C=CCn1c(SCC(=O)C23CC4CC(CC(C4)C2)C3)nc(O)cc1=O	> 0.0541 mg/mL
O=C1C2CCCN2C(c2ccco2)N1c1ccc(F)cc1 (stereo unspecified)	> 0.0429 mg/mL
N#CCN1CCC2(O)CCCCC2C1c1ccc2c(c1)OCO2 (stereo unspecified)	0.042 mg/mL (≈ 134 µM)
Cc1cccc(CC(=O)NCC2CCCCC2)c1	> 0.0368 mg/mL
CCOCCCNC(=O)/C(C#N)=C/c1ccc([N+](=O)[O-])o1	0.024 mg/mL (≈ 81.8 µM)
N/C(CC1CC1(Cl)Cl)=N\OC(=O)c1ccccc1 (stereo unspecified)	> 0.0431 mg/mL
O=C(Nc1ccc(F)cc1)c1cccnc1	> 0.0324 mg/mL
O=C(/C=C/c1cccc(F)c1)N1CCN(c2ncccn2)CC1	0.0124 mg/mL (≈ 39.7 µM)
CN(Cc1cccc(Cl)c1)C(=O)C1CSC2(C)CCC(=O)N12 (stereo unspecified)	> 0.0508 mg/mL
COc1cc2c(C(=O)O)c(C)n(C)c2cc1Br	> 0.0447 mg/mL
CC(C)[C@H](NS(=O)(=O)c1ccccc1F)C(=O)OCC(=O)Nc1cccc(S(N)(=O)=O)c1	> 0.0731 mg/mL
O=S(=O)(Nc1cc(S(=O)(=O)N2CCOCC2)ccc1Cl)c1ccccc1	> 0.0625 mg/mL
C=CCNC(=O)/C(C#N)=C/c1ccc(C(=O)O)cc1	> 0.0384 mg/mL
CCOc1ccc(Oc2ccc(Cl)cc2N)cc1.Cl	0.0045 mg/mL
CS(=O)(=O)N(CC(=O)N1CCOCC1)c1ccccc1	> 0.0448 mg/mL
CCOC(=O)C1CCN(CC(=O)Nc2ccc(OC)c(S(=O)(=O)N3CCCCC3)c2)CC1	> 0.0701 mg/mL
CCc1cn([C@H]2C[C@H](O)[C@@H](CO)O2)c(=O)[nH]c1=O	> 0.0384 mg/mL
CCN(CC)S(=O)(=O)c1ccc(OC(C)C)c(N)c1	> 0.043 mg/mL
O=C(Cc1c(Cl)cccc1Cl)NC1=NCCS1	0.0192 mg/mL (≈ 66.4 µM)
CCc1ccc(/C([O-])=C(/C(=S)NCCN2CCOCC2)[n+]2ccccc2)cc1	0.0554 mg/mL (≈ 139 µM)
